Values of other authors, collected in article PMC4404702 (Molecular imaging and biology : MIB : the official …, 2014).

How the values were obtained:
[1] = target: σ1; settings: read-out: Ki−σ1
[2] = target: σ2; settings: read-out: Ki−σ2

- Ki [1]: 1.2 ± 0.2 nM
- Ki [2]: 6.1 ± 1.5 nM
SMILES: O=C(Cc1cccc(Br)c1)NCc1ccc(F)cc1 [YUN-143, N-(4′-fluorobenzyl)-4-(3-bromophenyl)acetamide]
